According to patent publication US20040076659A1, “Additive for livestock feeds” (priority 1994, published 2004):

Tested on: dairy cows
Assay: Two levels of Tween 80, milk production and feed intake in cows under heat stress (Example 5)
Assay type: in vivo, Holstein
Conditions: for Drop in milk production: week 11 (heat stress)
Description: Seventy-five dairy cows of the Holstein breed were ranked according to lactation number, days in milk and production level and placed into three equal groups. Treatments were then randomly assigned to individual animals within the groups. There were 25 animals in each dietary treatment group. Cows were offered ad libitum access to a total mixed ration (TMR) based on grass silage, corn silage, grass hay and a commercial dairy concentrate. The treatments consisted of:
Treatment 1—Control diet (TMR).
Treatment 2—TMR containing 0.2% (w/w) Tween 80, and
Treatment 3—TMR containing 0.3% (w/w) Tween 80.
The experiment lasted 12 weeks. All cows were fed the control diet during the first week. This period served as a pretrial week. Cows in each treatment group were then fed their experimental diets for ten weeks. Milk production and feed intake were, monitored from the first week (pretrial) until the 12th week (one week after the experimental diets were withdrawn).
Ambient temperatures exceeded 40° C. during weeks 10 and 11 of the experiment resulting in considerable heat stress in the cows. Milk production and feed intake data are discussed in the light of the heat stress.

[1] = first calf heifers, 0.2% Tween 80, second week of heat stress

polyoxyethylene sorbitan monoleate [Tween 80]
Weight gain (0.2% Tween 80, first 30 d): 1 kg | Depression in dry matter intake (0.2% Tween 80, first week of heat stress): 3.4% | Weight gain (0.2% Tween 80, last 60 days): 9 kg | Depression in dry matter intake (0.2% Tween 80, second week of heat stress): 14.4% | Drop in milk production (0.2% Tween 80): 23.6% | Weight gain (0.3% Tween 80, first 30 d): 2.5 kg | Depression in dry matter intake (0.3% Tween 80, first week of heat stress): 6.0% | Weight gain (0.3% Tween 80, last 60 days): 4.5 kg | Depression in dry matter intake (0.3% Tween 80, second week of heat stress): 12.6% | Drop in milk production (0.3% Tween 80): 22% | Fall in milk production (Tween 80 treatments (0.2 and 0.3%), first week of heat stress (week 10)): about 11% | More milk than control, on average (first calf heifers, 0.2% Tween 80): 2 kg/day | Increase in milk over control [1]: 13.6% | More milk than control [1]: more than 3.6 kg/day | More milk than control, on average (mature cows, 0.2% Tween 80): 3.54 kg/day | More milk than control, on average (mature cows, 0.3% Tween 80): 3.98 kg/day
